Test results taken from patent EP1242012B1, “IMPROVED TRANSDERMAL CONTRACEPTIVE DELIVERY SYSTEM AND PROCESS” (priority 1999, dated 2001).

Key:
[1] = human, in vivo, topical or ocular
Source text: The total duration of study for each subject participating in this study is 5 months. It consists of one base-line period followed by three treatment periods and one recovery period. Each period is one menstrual cycle of the person subjects.
Subjects attending this 5 month-long study were randomly divided and sequentially admitted into three study groups. Group A, B and C subjects received one piece of 7.5 cm^2, 10.0 cm^2 and 12.5 cm^2 TCDS patch weekly, respectively, for three consecutive weeks I each of the three treatment periods. During the baseline and recovery periods, all the subjects received only the placebo patch of the corresponding size for three consecutive weeks. During the fourth week of each study period, no patch was worn by the subjects in any treatment groups.
According to the blood sampling schedule, a total of 57 blood samples (about 10 ml per sample) were taken from each subject during the 5-month study. During the three treatment cycles, 15 samples were taken through out the 21 days of patch wearing period. At the end of the third treatment cycle, 5 additional blood samples were taken during the 24 hours post patch removal which allows the elimination pharmacokinetics of drugs to be studied. […]
Serum level of levonorgestrel (LNG), ethinyl estradiol (EE) as well as luteinizing hormone (LH), progesterone (P) and estradiol (E2) were analyzed by radio-immunassay methods.

[2] = human, in vivo, topical or ocular; cited from earlier work

| Compound | levels achieved by the TCDS formulation of the present invention [1] | levels achieved by the system described in the '956 patent [2] |
| --- | --- | --- |
| C#C[C@]1(O)CC[C@H]2[C@@H]3CCc4cc(O)ccc4[C@H]3CC[C@@]21C [ethinyl estradiol] | 0.035 to 0.075 ng/mL |  |
| C#C[C@]1(O)CC[C@H]2[C@@H]3CCC4=CC(=O)CC[C@@H]4[C@H]3CC[C@@]21CC [levonorgestrel] |  | 0.4 ng/mL |
